In this assay the test system is alkaline phosphatase. The experiment in a line: Chemiluminescence intensity over time after combining the phosphate dioxetane with alkaline phosphatase solution. It counts as biochemical. The note with it: for profile of emission intensity over time (in words): alkaline phosphatase in 221 buffer, compound and TBE concentration differ per example; for intensity and speed of luminescence compared with other examples (in words): AP8, TBE enhancer in 221 buffer, concentrations differ per example.

The mark [1] stands for this setting: compound 1.25 mg/mL, TBE enhancer 5 mg/mL in 221 buffer, 100 μL + 10 μL AP8, 37° C.
[2] abbreviates: compound 0.125 mg/mL, TBE enhancer 2.5 mg/mL in 221 buffer, 100 μL + 10 μL AP8, 37° C.
The mark [3] stands for this setting: compound 0.25 mg/mL, TBE enhancer 5 mg/mL in 221 buffer, 100 μL + 10 μL AP8, 37° C.
The mark [4] stands for this setting: compound 0.25 mg/mL, TBE enhancer 2.5 mg/mL in 221 buffer, 100 μL + 10 μL AP8, 37° C.
Where [5] appears, read: compound 0.2 mg/mL in 221 buffer without TBE enhancer, 100 μL + 10 μL AP9 [1.24E-20 mole/μL], 37° C.

In the case of `COC1(c2cccc(OP(=O)([O-])[O-])c2)OOC12C1CC3CC(C1)CC2C3.[Na+].[Na+]` (centres unmarked) [Example 12, 4-methoxy-4-(3-phosphatephenyl)spiro[1,2-dioxetane-3,2′-adamantane], reference compound], the “profile of emission intensity over time (in words)” value (“profile … over time (in words)” below) runs as follows: (37° C.) “slow and gradual increase in emission intensity”; (37° C., listed as Lumigen® PPD) “slow luminescence”. Under setting [1], the “time to reach maximum light intensity or steady-state plateau” value is “more than 15 minutes”. Moreover, the Σ value under setting [1] is listed as 2.27E+05.
As to `COC1(c2ccc(Cl)c(OP(=O)([O-])[O-])c2)OOC12C1CC3CC2CC(Cl)(C3)C1.[Na+].[Na+]` (centres unmarked) [Example 13, reference compound], where the note is “37° C.”, the “profile … over time (in words)” value was “slow and gradual increase in emission intensity”. Besides, the “profile … over time (in words)” value (37° C., listed as Tropix CDP-Star®) was “slow luminescence”. For the same molecule, under setting [2], the “time to reach maximum light intensity or steady-state plateau” value is on record as “more than 15 minutes” and the Σ value is 1.91E+05.
Regarding `COC1(c2ccc(-c3cccs3)c(OP(=O)([O-])[O-])c2)OOC12C1CC3CC(C1)CC2C3.[Na+].[Na+]` (centres unmarked) [Example 14], for the setting “37° C.”, the “intensity and speed of luminescence compared with other examples (in words)” value is “higher intensity and faster response compared to the compound of Examples 12-13”; the “profile … over time (in words)” value was “rapid increase in intensity”. Besides, under setting [3], the “time to reach maximum, steady-state intensity” value (from here on “time … steady-state intensity”) was no more than 1 min and the Σ value was found to be 9.97E+05.
On to `COC1(c2ccc(-c3ccsc3)c(OP(=O)([O-])[O-])c2)OOC12C1CC3CC(C1)CC2C3.[Na+].[Na+]` (centres unmarked) [Example 15], for which, under “37° C.”, the “intensity and speed of luminescence compared with other examples (in words)” value is “higher intensity and faster response compared to the compound of Examples 12-13”; the “profile … over time (in words)” value is “rapid increase in intensity”. For the same molecule, under setting [3], the “time … steady-state intensity” value is no more than 2 min and the Σ value stood at 7.38E+05.
Regarding `C=Cc1ccc(C2(OC)OOC23C2CC4CC(C2)CC3C4)cc1OP(=O)([O-])[O-].[Na+].[Na+]` (centres unmarked) [Example 16], where the note is “37° C.”, the “intensity and speed of luminescence compared with other examples (in words)” value is “higher intensity and faster response compared to the compound of Examples 12-15”; the “profile … over time (in words)” value is “rapid increase in intensity”. Under setting [4], the “time … steady-state intensity” value was “less than 3 minutes” and the Σ value worked out at 1.59E+06.
Take `COC1(c2ccc(-c3ccc(C#N)s3)c(OP(=O)([O-])[O-])c2)OOC12C1CC3CC(C1)CC2C3.[Na+].[Na+]` (centres unmarked) [Example 17]: the “profile … over time (in words)” value (37° C.) is recorded as “rapid increase in intensity”. Also, under setting [5], the “time … steady-state intensity” value was no more than 2 min and the Σ value was 2.77E+05.

The values above are taken from patent US20220390459A1, “RAPID, HIGH-INTENSITY CHEMILUMINESCENT DIOXETANES” (Beckman Coulter, Inc., priority 2019, published 2022).
